Results: US9045505B2, “Nitric oxide donors” (University of Otago, priority 2006, dated 2015)

Assays:
[1] = test system: HeLa cells; assay: Cell hypoxia experiment, extracellular pO2 by fluorescence quenching oximetry; format: cell-based; conditions: 1% O2, 30 min incubation, compared to untreated controls
Procedure: FIG. 10 is a series of traces and graphs showing the effect of MitoSNAP on respiration in cells. (a-d) Jurkat cells (55×10^6 cells) were incubated in PBS supplemented with 25 mM Hepes pH 7.2 (NaOH), 1 mM sodium pyruvate, 10 μM neocuproine and 100 μM DTPA in the stirred 2.5 ml chamber of an oxygen electrode at 37° C. with 5 μM MitoSNAP (a), MitoNAP (b), SNAP (c) or MitoSNAP and FCCP (500 nM) (d). Where indicated 5 μM OxyHb was added. Traces show typical experiments that were repeated at least three times. Sections of the 02 electrode trace where OxyHb was added for (a) and (b) have been expanded 4-fold in the vertical dimension to facilitate inspection. […] Cellular pO2 values, measured by fluorescence quenching oximetry and expressed as mean±sd, are shown. […]
HeLa cells were seeded and grown to 100% confluence with 15 ml medium/dish on 165 cm^2 dishes. […] Extracellular pO2 measurements were taken by fluorescence quenching oximetry (Oxylite-2000; Oxford Optronix). […]
To evaluate the selective uptake of MitoSNAP by mitochondria within cells, the effect of MitoSNAP on respiration by Jurkat cells, a T lymphocyte cell line that grows in suspension, was measured using an O2 electrode (FIG. 10). […] Then the effects of a further 30 min incubation with MitoSNAP, MitoNAP or the mitochondrial inhibitor myxathiazol on the steady-state extracellular pO2 was assessed by fluorescence quenching oximetry (FIG. 10e).

[2] = test system: liver or heart mitochondria; assay: Visualisation of S-nitrosated mitochondrial proteins by Cy3 maleimide labelling; format: biochemical, rat; conditions: 10 μM MitoSNAP or 500 μM diamide, 5 min
Procedure: FIG. 11 is a series of graphs showing S-nitrosation of mitochondrial thiols by MitoSNAP. (a) Time course of S-nitrosation of mitochondrial proteins by MitoSNAP. Liver mitochondria (1 mg protein) were incubated in 1 ml KCl buffer supplemented with rotenone and succinate in the presence of 5 μM MitoSNAP. At various times mitochondria were treated with 10 mM N-ethylmaleimide (NEM), isolated by centrifugation and the S-nitrosothiol content assessed. Data are of a typical experiment showing means±range of duplicate samples for each time point, each measured in duplicate. The experiment was repeated twice. (b) S-nitrosation of mitochondrial proteins by different concentrations of MitoSNAP and SNAP. Aliquots of liver mitochondria were incubated with the indicated concentrations of MitoSNAP or SNAP for […] in the presence or absence of 500 nM FCCP and then assessed for S-nitrosothiol content as in (a). […] Data are of a typical experiment showing means±range of duplicate samples for each time point, each measured in duplicate. […] After further incubation for 5 min at 37° C. in the dark, the medium was removed and the content of S-nitrosated proteins was measured. […] S-nitrosated thiols were then selectively tagged with Cy3 maleimide and protein (10 μg) was then separated on a 12.5% SDS PAGE gel which was stained with coomassie blue and scanned for Cy3 fluorescence. […]

[3] = test system: complex I; assay: Respiration by bovine heart mitochondrial membranes on NADH or succinate; format: biochemical; conditions: 75 μM, 5 min
Procedure: (a) Effect of MitoSNAP on mitochondrial respiration.
Mitochondrial preparations and incubations.

Structure (SMILES): CC(=O)NC(C(=O)NCCCCC[P+](c1ccccc1)(c1ccccc1)c1ccccc1)C(C)(C)SN=O.CS(=O)(=O)[O-] (stereo not shown) [MitoSNAP, [5-(2-acetylamino-3-methyl-3-nitrosothio-butyrylamino)-penty1]-triphenylphosphonium methanesulfonate]
- effect on steady-state extracellular pO2 during hypoxia [1]: increased extracellular O2
- Cy3 labelling of S-nitrosated proteins [2]: S-nitrosation of a large number of different proteins
- effect on succinate respiration [3]: unaffected
- inhibition of NADH respiration [3]: about 35%
